Several values for one entry are separate records, joined by “and”; a condition that tells them apart may be missing. Equal values may be shown once. Read-outs that look alike come from different tables or passages of the source. Marks after values point to notes of the source that are not given here.
Experiments:
mTOR = mTOR (Homo sapiens, UniProt P42345); settings: low concentration; Serra et al., 2008; cited from earlier work
PI3K/mTOR = settings: relatively higher concentrations; Serra et al., 2008; cited from earlier work
B/Brisbane/60/2008 = test: Hemagglutination inhibition (HI) titers after seasonal influenza vaccination in elderly volunteers pretreated with RAD001 or placebo; type: in vivo, human
Description: (§1) From December 2011 to April 2012, 218 elderly volunteers were enrolled in a randomized, observer-blind, placebo-controlled trial. The subjects were randomized to treatment arms using a validated automated randomization system with a ratio of RAD001 to placebo of 5:2 in each treatment arm. The treatment arms were:
(§2) The trial was observer-blind because the placebo in the RAD001 0.5 mg daily and 20 mg weekly cohorts differed slightly from the RAD001 tablets in those cohorts. […] The treatment duration for all cohorts was 6 weeks during which time subjects underwent safety evaluations in the clinic every 2 weeks. After subjects had been dosed for 4 weeks, RAD001 steady state levels were measured pre-dose and at one hour post dose. After completing the 6 week course of study drug, subjects were given a 2 week drug free break to reverse any possible RAD001-induced immunosuppression, and then were given a 2012 seasonal influenza vaccination (Agrippal®, Novartis Vaccines and Diagnostics, Siena, Italy) containing the strains H1N1 A/California/07/2009, H3N2 A/Victoria/210/2009, B/Brisbane/60/2008. Four weeks after influenza vaccination, subjects had serum collected for influenza titer measurements. Antibody titers to the 3 influenza vaccine strains as well as to 2 heterologous strains (A/H1N1 strain A/New Jersy/8/76 and A/H3N2 strain A/Victoria/361/11) were measured by standard hemagglutination inhibition assay (Kendal, A P et al. (1982) Concepts and procedures for laboratory-based influenza surveillance. Atlanta: Centers for Disease Control and Prevention B17-B35). Levels of IgG and IgM specific for the A/H1N1/California/07/2009 were measured in serum samples taken before and 4 weeks after influenza vaccination as described previously (Spensieri, F. et al. (2013) Proc. Natl. Acad. Sci. USA 110:14330-14335). Results were expressed as fluorescence intensity.
(§3) The primary analysis of geometric mean titer ratios was done using a normal Bayesian regression model with non-informative priors. This model was fitted to each antibody titer on the log scale. The primary outcome in each model was the Day 84 measurement. The Day 63 measurement was included in the outcome vector. The model fitted using SAS 9.2 proc mixed with the prior statement. The covariance structure of the matrix was considered as unstructured (option type=UN). A flat prior was used. For the secondary analysis of seroconversion rates, logistic regression was used.
(§4) The ability of RAD001 to improve immune function in elderly volunteers was evaluated by measuring the serologic response to the 2012 seasonal influenza vaccine. The hemagglutination inhibition (HI) geometric mean titers (GMT) to each of the 3 influenza vaccine strains at baseline and 4 weeks after influenza vaccination are provided in Table 4. The primary analysis variable was the HI GMT ratio (4 weeks post vaccination/baseline). […] This endpoint was chosen because a 1.2-fold increase in the influenza GMT ratio induced by the MF-59 vaccine adjuvant was associated with a decrease in influenza illness (Iob, A et al. (2005) Epidemiol Infect 133:687-693).
(§5) Rates of seroconversion 4 weeks after influenza vaccination were also evaluated. Seroconversion was defined as the change from a negative pre-vaccination titer (i.e., HI titer <1:10) to post-vaccination HI titer≥1:40 or at least 4-fold increase from a non-negative (≥1:10) pre-vaccination HI titer.

[1] = system: H1N1 A/California/07/2009; test: as above; type: in vivo, human
Description: as §1, §2, §3, §4, §5

H3N2 A/Victoria/210/2009 = test: as above; type: in vivo, human
Description: as §1, §2, §3, §4, §5

[2] = system: A/H1N1 strain A/New Jersey/8/76; type: in vivo, human; settings: for Percentage of subjects who seroconvert to heterologous strain 4 weeks after seasonal influenza vaccination: A/H1N1 strain: A/NewJersey/8/76
[3] = system: A/H3N2 strain A/Victoria/361/11; test: HI titers / seroconversion to heterologous influenza strain not contained in the vaccine; type: in vivo, human; settings: for Percentage of subjects who seroconvert to heterologous strain 4 weeks after seasonal influenza vaccination: A/H3N2 strain: A/Victoria/361/11
[4] = Adverse event assessment in elderly volunteers; type: in vivo, human; settings: for Treatment-related AEs: Total AE(s): N = 53
Description: Adverse event assessment and blood collection for hematologic and biochemical safety assessments were performed during study visits. Adverse event information was also collected in diaries that subjects filled out at home during the 6 weeks they were on study drug. Data on all adverse events were collected from the time of informed consent until 30 days after the last study visit. Events were classified by the investigators as mild, moderate or severe.
The 4 SAEs were retinal hemorrhage of the left eye with subsequent blindness in a subject with normal platelet counts who had completed a 6 week course of 5 mg weekly RAD001 6 weeks previously; severe back pain in a subject treated with placebo and severe gastroenteritis in a subject treated with placebo. The most common RAD001-related AE was mouth ulcer that, in the majority of cases, was of mild severity.

[5] = system: PD-1 positive and PD-1 negative CD4 and CD8 T cells; design: species or system human; settings: in vivo
[6] = system: A/H1N1/California/07/2009; test: Anti-influenza IgG and IgM levels in serum before and 4 weeks after vaccination; type: in vivo, human; settings: all p values >0.05 by Kruskal-Wallis rank sum test
Description: as §2, with “After completing the 6 week course of study drug, subjects were given a 2 week drug free break to reverse any possible RAD001-induced immunosuppression, and then were given a 2012 seasonal influenza vaccination (Agrippal®, Novartis Vaccines and Diagnostics, Siena, Italy) containing the strains H1N1 A/California/07/2009, H3N2 A/Victoria/210/2009, B/Brisbane/60/2008. Four weeks after influenza vaccination, subjects had serum collected for influenza titer measurements.” left out

[7] = system: 3 influenza vaccine strains (H1N1, H3N2 and B); test: Primary endpoint: HI GMT increase relative to placebo in at least 2 out of 3 influenza vaccine strains; type: in vivo, human; settings: for primary endpoint (>=1.2-fold GMT increase relative to placebo in at least 2 out of 3 vaccine strains): ITT population
Description: as §4
Elderly volunteers >=65 years of age were randomized to one of the 3 RAD001 treatment groups (50 subjects per arm) or placebo (20 subjects per arm). Subjects were treated with study drug for 6 weeks, given a 2 week break, and then received influenza (Aggrippal, Novartis) and pneumoccal (Pneumovax 23, Merck), vaccinations. Response to influenza vaccination was assessed by measuring the geometric mean titers (GMTs) by hemagglutination inhibition assay to the 3 influenza strains (H1N1, H3N2 and B influenza subtypes) in the influenza vaccine 4 weeks after vaccination. The primary endpoints of the study were (1) safety and tolerability and (2) a 1.2 fold increase in influenza titers as compared to placebo in ⅔ of the influenza vaccine strains 4 weeks after vaccination. This endpoint was chosen because a 1.2 fold increase in influenza titers is associated with a decrease in influenza illness post vaccination, and therefore is clinically relevant. […] The pneumococcal vaccine contains antigens from 23 pneumococcal serotypes. Antibody titers to 7 of the serotypes were measured in our subjects.

[8] = in vivo
clinical = settings: human, in vivo
[9] = Intention to Treat Population, 0.5 mg
[10] = Intention to Treat Population, 5 mg
[11] = Intention to Treat Population, 20 mg
[12] = Subjects with Baseline Titers <=40, 0.5 mg
[13] = Subjects with Baseline Titers <=40, 5 mg
[14] = Subjects with Baseline Titers <=40, 20 mg

Cn1c(=O)n(-c2ccc(C(C)(C)C#N)cc2)c2c3cc(-c4cnc5ccccc5c4)ccc3ncc21 [BEZ235, 2-methyl-2-[4-(3-methyl-2-oxo-8-quinolin-3-yl-2,3-dihydro-imidazo[4,5-c]quinolin-1-yl)-phenyl]-propionitrile]
concentration at which mTOR inhibition predominates (mTOR): less than 100 nmol/L
concentration giving dual PI3K/mTOR inhibition (PI3K/mTOR): approximately 500 nmol/L

CO[C@H]1C[C@@H]2CC[C@@H](C)[C@@](O)(O2)C(=O)C(=O)N2CCCC[C@H]2C(=O)O[C@H]([C@H](C)C[C@@H]2CC[C@@H](OCCO)[C@H](OC)C2)CC(=O)[C@H](C)/C=C(\C)[C@@H](O)[C@@H](OC)C(=O)[C@H](C)C[C@H](C)/C=C/C=C/C=C/1C [RAD001, (1R,9S,12S,15R,16E,18R,19R,21R,23 S,24E,26E,28E,30S,32S,35R)-1,18-dihydroxy-12-{(1R)-2-[(1 S,3R,4R)-4-(2-hydroxyethoxy)-3-methoxycyclohexyl]-1-methylethyl}-19,30-dimethoxy-15,17,21,23,29,35-hexamethyl-11,36-dioxa-4-aza-tricyclo[30.3.1.04,9]hexatriaconta-16,24,26,28-tetraene-2,3,10,14,20-pentaone]
Percent of subjects with seroconversion to influenza 4 weeks after vaccination (B/Brisbane/60/2008; [9]): 27%
Percent of subjects with seroconversion to influenza 4 weeks after vaccination (B/Brisbane/60/2008; [10]): 22%
Percent of subjects with seroconversion to influenza 4 weeks after vaccination (B/Brisbane/60/2008; [11]): 19%
Percent of subjects with seroconversion to influenza 4 weeks after vaccination (B/Brisbane/60/2008; [12]): 40* Percent
Percent of subjects with seroconversion to influenza 4 weeks after vaccination (B/Brisbane/60/2008; [13]): 33%
Percent of subjects with seroconversion to influenza 4 weeks after vaccination (B/Brisbane/60/2008; [14]): 28%
Percent of subjects with seroconversion to influenza 4 weeks after vaccination [1, 9]: 27%
Percent of subjects with seroconversion to influenza 4 weeks after vaccination [1, 10]: 27%
Percent of subjects with seroconversion to influenza 4 weeks after vaccination [1, 11]: 17%
Percent of subjects with seroconversion to influenza 4 weeks after vaccination [1, 12]: 42%
Percent of subjects with seroconversion to influenza 4 weeks after vaccination [1, 13]: 45%
Percent of subjects with seroconversion to influenza 4 weeks after vaccination [1, 14]: 36%
Percent of subjects with seroconversion to influenza 4 weeks after vaccination (H3N2 A/Victoria/210/2009; [9]): 27%
Percent of subjects with seroconversion to influenza 4 weeks after vaccination (H3N2 A/Victoria/210/2009; [10]): 24%
Percent of subjects with seroconversion to influenza 4 weeks after vaccination (H3N2 A/Victoria/210/2009; [11]): 25%
Percent of subjects with seroconversion to influenza 4 weeks after vaccination (H3N2 A/Victoria/210/2009; [12]): 64%
Percent of subjects with seroconversion to influenza 4 weeks after vaccination (H3N2 A/Victoria/210/2009; [13]): 53%
Percent of subjects with seroconversion to influenza 4 weeks after vaccination (H3N2 A/Victoria/210/2009; [14]): 71%
increase in HI GMT ratio for heterologous strain as compared to placebo ([2]; 4 weeks after vaccination): higher
Percentage of subjects who seroconvert to heterologous strain 4 weeks after seasonal influenza vaccination ([2]; RAD001 5 mg weekly): 16%
Percentage of subjects who seroconvert to heterologous strain 4 weeks after seasonal influenza vaccination ([2]; RAD001 20 mg weekly): 8%
increase in HI GMT ratio for heterologous strain as compared to placebo ([3]; 4 weeks after vaccination): higher
Percentage of subjects who seroconvert to heterologous strain 4 weeks after seasonal influenza vaccination ([3]; RAD001 0.5 mg daily): 38%
Percentage of subjects who seroconvert to heterologous strain 4 weeks after seasonal influenza vaccination ([3]; RAD001 5 mg weekly): 39%*
Percentage of subjects who seroconvert to heterologous strain 4 weeks after seasonal influenza vaccination ([3]; RAD001 20 mg weekly): 40%*
H3N2 heterologous strain seroconversion rate ([3]; pooled RAD001 cohorts, versus 20% for placebo (p=0.007)): 39%
Treatment-related AEs: Total AE(s) ([4]; RAD001 0.5 mg daily): 35 n (%)
Treatment-related AEs: Total AE(s) ([4]; RAD001 5 mg weekly): 46 n (%)
Treatment-related AEs: Total AE(s) ([4]; RAD001 20 mg weekly): 109 n (%)
deaths during the study ([4]; elderly volunteers, 6 week treatment): No deaths occurred
severe AEs assessed as related to RAD001 ([4]; mouth ulcers in a subject treated with 20 mg weekly): Only one severe AE
decrease in PD-1-positive CD4 T cells as compared to the placebo cohort [5]: −37.1-−28.5%
decrease in PD-1-positive CD8 T cells as compared to the placebo cohort [5]: −43.3-−38.5%
decrease in PD-1 positive CD4 T cells compared to placebo cohort [5]: 30.2% and 32.7%
decrease in PD-1 positive CD8 T cells compared to placebo cohort [5]: 37.4% and 41.4%
increase in PD-1-negative CD4 T cells as compared to the placebo cohort [5]: 3.0-4.9%
percentage of CD4 PD-1 positive T cells versus baseline [5]: decreased from baseline
percentage of CD8 PD-1 positive cells versus baseline [5]: decreased from baseline
significant differences in the percentages of naïve lymphocytes versus placebo [5]: not detected
change from baseline to 4 weeks post vaccination in anti-H1N1 influenza IgG and IgM levels versus placebo [6]: No significant difference
primary endpoint (>=1.2-fold GMT increase relative to placebo in at least 2 out of 3 vaccine strains) ([7]; 0.5 mg daily or 5 mg weekly): met the GMT primary endpoint
primary endpoint (>=1.2-fold GMT increase relative to placebo in at least 2 out of 3 vaccine strains) ([7]; 20 mg weekly): but not higher dose (20 mg weekly) cohort met the primary endpoint
RAD001 concentration versus increase in titer to each influenza vaccine strain ([7]; RAD001 concentration 1 hour post dose after 4 weeks dosing): inverse exposure/response relationship
increase in influenza titers in subjects with low baseline titers versus ITT population ([7]; subset with baseline influenza titers <=1:40): greater RAD001-associated increase in titers
trough level of study dosing regimens relative to approved transplant and oncology regimens ([8]; human): 3-20 fold lower
average RAD001 trough level [8]: below detection limits
concentration at 4 weeks (clinical; 0.5 mg daily): 0.9 ng/mL
concentration at 4 weeks (clinical; 5 mg weekly): < 0.3 ng/mL
concentration at 4 weeks (clinical; 20 mg weekly): 0.7 ng/mL

Source: patent US10004803B2, “Low, immune enhancing, dose mtor inhibitors and uses thereof” (Novartis AG, priority 2013, dated 2018)
